These results are taken from US8507472B2 (priority 2010, dated 2013).

The subject of test [1] is Fusarium graminearum. Type of test: in vivo. The conditions noted are these: in vivo.
For a further test, the system named is Puccinia triticina. Kind of test: Puccinia triticina test (wheat)/protective. The class given is in vivo. The conditions noted are these: in vivo. The protocol:
Solvent: 49 parts by weight of […]
(§1) Emulsifier: 1 part by weight of alkylaryl polyglycol ether
(§2) To produce a suitable preparation of active compound, 1 part by weight of active compound is mixed with the stated amounts of solvent and emulsifier, and the concentrate is diluted with water to the desired concentration.
(§3) To test for protective activity, young plants are sprayed with the active compound preparation at the stated application rate.
After the spray coating has dried on, the plants are sprayed with spores of a spore suspension of Puccinia triticina. The plants remain in an incubation cabin at 20° C. and 100% relative atmospheric humidity for 48 hours.
The plants are placed in greenhouse at a temperature of about 20° C. and a relative atmospheric humidity of about 80%.
Evaluation is carried out 8 days after the inoculation. 0% means an efficacy which corresponds to that of the control, whereas an efficacy of 100% means that no infection is observed.

A further test relates to Uromyces appendiculatus. Nature of the test: Uromyces test (bean)/protective. As to conditions: in vivo. The class given is in vivo. The protocol:
(§4) Solvents: 24.5 parts by weight of acetone
(§5) • 24.5 parts by weight of dimethylacetamide Emulsifier: 1 part by weight of alkylaryl polyglycol ether
(§6) To produce a suitable preparation of active compound, 1 part by weight of active compound is mixed with the stated amounts of solvents and emulsifier, and the concentrate is diluted with water to the desired concentration.
To test for protective activity, young plants are sprayed with the active compound preparation at the stated application rate. After the spray coating has dried on, the plants are inoculated with an aqueous spore suspension of the bean rust pathogen Uromyces appendiculatus and then remain in an incubation cabin at about 20° C. and 100% relative atmospheric humidity for 1 day.
(§7) The plants are then placed in a greenhouse at about 21° C. and a relative atmospheric humidity of about 90%.
(§8) Evaluation is carried out 10 days after the inoculation. 0% means an efficacy which corresponds to that of the control, whereas an efficacy of 100% means that no infection is observed.

Test [2] relates to Fusarium nivale (var. majus). Nature of the test: Fusarium nivale (var. majus) test (wheat)/protective. The class given is in vivo. The conditions noted are these: 1000 ppm active compound, protective, evaluation 5 days after inoculation. The protocol:
(§9) Solvent: 49 parts by weight of N,N-dimethylacetamide
as §1, §2, §3
After the spray coating has dried on, the plants are sprayed with spores of a spore suspension of Fusarium nivale (var. majus).
The plants are placed in a greenhouse chamber under a translucent incubation hood at 10° C. and 100% relative atmospheric humidity.
Evaluation is carried out 5 days after the inoculation. 0% means an efficacy which corresponds to that of the control, whereas an efficacy of 100% means that no infection is observed.

For the next test, the system named is Pyrenophora teres. Nature of the test: Pyrenophora teres test (barley)/protective. Type of test: in vivo. As to conditions: in vivo. The gist of the method: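 Efficacy, read 7-9 days after spore inoculation, runs from 0% (equal to untreated control) to 100% (no infection). Barley sprayed with water-diluted DMF/emulsifier formulation was inoculated one day later, incubated 48 h at 22° C. and 100% rel. humidity, then held at 20° C. and 80% humidity.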

The subject of the next test is Venturia inaequalis. Nature of the test: Venturia test (apple)/protective. The class given is in vivo. The conditions noted are these: 100 ppm active compound, protective, evaluation 10 days after inoculation. The procedure:
Solvents: 24.5 parts by weight of acetone • 24.5 parts by weight of dimethylacetamide Emulsifier: 1 part by weight of alkylaryl polyglycol ether
as §6
To test for protective activity, young plants are sprayed with the active compound preparation at the stated application rate. After the spray coating has dried on, the plants are inoculated with an aqueous conidia suspension of the apple scab pathogen Venturia inaequalis and then remain in an incubation cabin at about 20° C. and 100% relative atmospheric humidity for 1 day.
as §7, §8

A further test has as its system Botrytis cinerea. Nature of the test: Botrytis test (bean)/protective. The conditions noted are these: 100 ppm active compound, protective, evaluation 2 days after inoculation. Type of test: in vivo. The protocol: as §4, §5, §6
To test for protective activity, young plants are sprayed with the active compound preparation at the stated application rate. After the spray coating has dried on, 2 small pieces of agar colonized by Botrytis cinerea are placed onto each leaf. The inoculated plants are placed in a dark chamber at about 20° C. and 100% relative atmospheric humidity.
2 days after the inoculation, the size of the infected areas on the leaves is evaluated. 0% means an efficacy which corresponds to that of the control, whereas an efficacy of 100% means that no infection is observed.

The next test concerns Phytophthora infestans. Type of test: in vivo. As to conditions: in vivo.
For test [3], the system named is Fusarium graminearum. Nature of the test: microbe, parasite or virus in culture. Type of test: cell-based. As to conditions: 50 μM.
For the next test, the system named is DON/AcDON production. Nature of the test: microbe, parasite or virus in culture. Type of test: cell-based, Fusarium graminearum. As to conditions: 7 days at 28° C.
The next test deals with Alternaria solani. Nature of the test: Alternaria test (tomato)/protective. Type of test: in vivo. The conditions noted are these: in vivo. Summed up: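 Treatment was protective: spray application at the stated rate came one day before spore inoculation. Incubation was 24 h at 22 °C and 100% humidity, then 20 °C and 96% humidity. Infection was rated at day 7 as % efficacy against the control, with 100% meaning no disease.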

A further test has as its system Sphaerotheca fuliginea. Kind of test: Sphaerotheca test (cucumber)/protective. The class given is in vivo. The conditions noted are these: in vivo. The gist of the method: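 Infection was rated 7 days after spore inoculation as % efficacy (0% = control level, 100% = no disease). Inoculation followed 1 day after preventive spray of young cucumbers with compound formulated in N,N-dimethylformamide plus emulsifier and diluted with water; plants were held at 23 °C and 70% relative humidity.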

Another test relates to Leptosphaeria nodorum. Nature of the test: Leptosphaeria nodorum test (wheat)/protective. The class given is in vivo. The conditions noted are these: in vivo. Summed up: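 Young wheat plants were sprayed protectively, then inoculated 1 day later with L. nodorum spores and held 48 h at 100% humidity and 22° C. They were then kept in a greenhouse at 90% humidity and 22° C. Efficacy was scored 7-9 days post-inoculation, where 0% equals control and 100% means no infection.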

The test system of a further test is Septoria tritici. Kind of test: Septoria tritici test (wheat)/protective. The conditions noted are these: in vivo. Type of test: in vivo. The protocol:
as §9, §1
To produce a suitable preparation of active compound, 1 part by weight of active compound is mixed with the stated amount of solvent and emulsifier, and the concentrate is diluted with water to the desired concentration.
To test for protective activity, young plants are sprayed with the active compound preparation at the stated application rate. After the spray coating has dried on, the plants are sprayed with a spore suspension of Septoria tritici. The plants remain in an incubation cabin at 20° C. and 100% relative atmospheric humidity for 48 hours. The plants are then placed under a translucent hood at 15° C. and 100% relative atmospheric humidity for a further 60 hours.
The plants are placed in a greenhouse at a temperature of about 15° C. and a relative atmospheric humidity of 80%.
Evaluation is carried out 21 days after the inoculation. 0% means an efficacy which corresponds to that of the control, whereas an efficacy of 100% means that no infection is observed.

Turning to `COC(=O)Nc1cc(-c2c(-c3ccccc3)nn3c2CCCC3)ccn1` [Example 27], the efficacy in % in the test on Fusarium graminearum [1] is given as 94%; with Puccinia triticina, 75%; with Uromyces appendiculatus, 94%; in [2], 86%; in the test on Pyrenophora teres it was 90%; with Venturia inaequalis, 89%. Further, the figures for the efficacy in % in the test on Botrytis cinerea, in the test with Phytophthora infestans and in the test with Alternaria solani were 92%, 80% and 100%, respectively. Moreover, in the test with Fusarium graminearum [3], the “% inhibition of the fungal growth of Fusarium graminearum at 50 μM” value (shortened to “% inhibition of the fungal growth … at 50 μM”) was determined as 56%. Besides, the “% inhibition of DON/AcDON at 50 μM” value in the test with DON/AcDON production is given as 99%.

Regarding `CCC(=O)Nc1cc(-c2c(-c3ccsc3)nn3c2CCCC3)ccn1` [Example 59], the efficacy in % with Fusarium graminearum [1] was 94%; with Puccinia triticina, 100%; in [2] it was 100%; with Sphaerotheca fuliginea, 98%; in the test on Pyrenophora teres, 90%; with Venturia inaequalis, 97%. The efficacy in % in the test on Botrytis cinerea stood at 100%; with Alternaria solani, 70%; in the test on Leptosphaeria nodorum, 89%. Also, the “% inhibition of the fungal growth … at 50 μM” value with Fusarium graminearum [3] stood at 100%. For the same molecule, in the test on DON/AcDON production, the “% inhibition of DON/AcDON at 50 μM” value is reported as 100%.

For `CC(C)(O)C(=O)Nc1cc(-c2c(-c3ccc(F)cc3)nn3c2CCCC3)ccn1` [Example 55], the efficacy in % in the test on Fusarium graminearum [1] is 83%; in the test with Puccinia triticina it was 100%; in test [2], 100%; in the test with Septoria tritici, 90%; in the test on Sphaerotheca fuliginea it was 95%; in the test with Pyrenophora teres, 95%. Moreover, the figures for the efficacy in % with Alternaria solani and with Leptosphaeria nodorum were 80% and 90%, respectively.

As for `C[C@H](O)C(=O)Nc1cc(-c2c(-c3ccccc3)nn3c2CCCC3)ccn1` [Example 25], the efficacy in % with Puccinia triticina is reported as 88%; in the test with Uromyces appendiculatus it was 94%; in [2], 100%; with Septoria tritici, 86%; in the test on Sphaerotheca fuliginea it was 94%; in the test with Pyrenophora teres, 100%. In addition, the efficacy in % with Venturia inaequalis turned out to be 94%; with Botrytis cinerea, 90%; in the test on Phytophthora infestans, 80%; in the test on Alternaria solani, 100%; in the test on Leptosphaeria nodorum it was 95%. In addition, the “% inhibition of the fungal growth … at 50 μM” value in the test with Fusarium graminearum [3] was found to be 92%. Moreover, in the test on DON/AcDON production, the “% inhibition of DON/AcDON at 50 μM” value was determined as 99%.

For the molecule `CN(C)C=Nc1cc(-c2c(-c3ccccc3)nn3c2CCCC3)ccn1` [Example 38], the efficacy in % in test [2] was determined as 86%; with Pyrenophora teres, 95%; in the test on Phytophthora infestans, 70%; in the test on Alternaria solani, 95%. Besides, the “% inhibition of the fungal growth … at 50 μM” value in the test on Fusarium graminearum [3] is given as 89%. The “% inhibition of DON/AcDON at 50 μM” value in the test with DON/AcDON production was determined as 99%.

Regarding `O=C(Nc1cc(-c2c(-c3ccc(F)cc3)nn3c2CCCC3)ccn1)c1ccsc1` [Example 47], the efficacy in % is 80% in test [2]; 100% with Septoria tritici; 96% with Sphaerotheca fuliginea; 90% in the test on Pyrenophora teres; 80% in the test on Phytophthora infestans; 90% in the test on Alternaria solani. In the test on Fusarium graminearum [3], the “% inhibition of the fungal growth … at 50 μM” value was found to be 76%. Also, the “% inhibition of DON/AcDON at 50 μM” value in the test on DON/AcDON production is on record as 100%.

Regarding `O=C(Nc1cc(-c2c(-c3ccccc3)nn3c2CCCC3)ccn1)c1ccccc1` [Example 33], the efficacy in % is 95% in the test on Uromyces appendiculatus; 95% in the test with Sphaerotheca fuliginea; 78% in the test on Pyrenophora teres; 95% in the test with Venturia inaequalis; 98% in the test with Botrytis cinerea; 70% in the test on Phytophthora infestans. Further, the results for the efficacy in % with Alternaria solani and with Leptosphaeria nodorum were 89% and 70%, respectively. For the same molecule, the “% inhibition of the fungal growth … at 50 μM” value with Fusarium graminearum [3] was found to be 100%. In addition, the “% inhibition of DON/AcDON at 50 μM” value in the test on DON/AcDON production is on record as 99%.

On to `Fc1ccc(-c2nn3c(c2-c2ccncc2)CCCCC3)cc1` [Example 43], for which the efficacy in % in the test with Puccinia triticina worked out at 100%; with Uromyces appendiculatus, 90%; in [2] it was 80%; in the test on Septoria tritici, 100%; in the test with Pyrenophora teres, 95%; in the test on Venturia inaequalis, 98%. In addition, the efficacy in % in the test with Botrytis cinerea worked out at 99%; in the test with Phytophthora infestans, 70%; with Alternaria solani it was 94%; in the test with Leptosphaeria nodorum it was 90%. Also, the “% inhibition of the fungal growth … at 50 μM” value in the test on Fusarium graminearum [3] is 100%. For the same molecule, the “% inhibition of DON/AcDON at 50 μM” value in the test with DON/AcDON production is listed as 98%.

In the case of `O=CNc1cc(-c2c(-c3ccccc3)nn3c2CCCC3)ccn1` [Example 37], the efficacy in % with Puccinia triticina is given as 78%; in test [2], 86%; with Pyrenophora teres, 100%; with Phytophthora infestans, 70%; in the test on Alternaria solani it was 95%; with Leptosphaeria nodorum, 90%. Moreover, the “% inhibition of the fungal growth … at 50 μM” value in the test on Fusarium graminearum [3] is recorded as 93%. Besides, the “% inhibition of DON/AcDON at 50 μM” value in the test on DON/AcDON production was found to be 99%.

`CC(C)CC(=O)Nc1cc(-c2c(-c3ccsc3)nn3c2CCCC3)ccn1` [Example 64]: the efficacy in % in the test on Uromyces appendiculatus is recorded as 78%; in the test on Sphaerotheca fuliginea, 86%; in the test on Pyrenophora teres it was 100%; in the test with Venturia inaequalis it was 99%; in the test on Botrytis cinerea it was 100%; in the test on Phytophthora infestans it was 80%. For the same molecule, the efficacy in % was 100% with Alternaria solani and 94% in the test on Leptosphaeria nodorum. In the test with Fusarium graminearum [3], the “% inhibition of the fungal growth … at 50 μM” value was 100%. Moreover, the “% inhibition of DON/AcDON at 50 μM” value in the test on DON/AcDON production was found to be 100%.
